PubChem BioAssay (NCI)
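All cell lines were grown in 96-well plates and treated with compound for 48 hours. At the GI50, growth is halved. TGI marks complete inhibition of growth.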

Assays:
Assay in all cases: NCI anticancer screen, dose series, 48 h
SF-268 CNS = test system: SF-268 CNS
SK-OV-3 ovarian = test system: SK-OV-3 ovarian
ACHN renal = test system: ACHN renal
UO-31 renal = test system: UO-31 renal
UACC-257 melanoma = test system: UACC-257 melanoma
HCT-116 colon = test system: HCT-116 colon
MCF7 breast = test system: MCF7 breast
COLO 205 colon = test system: COLO 205 colon
U251 CNS = test system: U251 CNS
786-0 renal = test system: 786-0 renal
HL-60(TB) leukemia = test system: HL-60(TB) leukemia
SN12C renal = test system: SN12C renal
SF-539 CNS = test system: SF-539 CNS
SW-620 colon = test system: SW-620 colon
MDA-MB-231 breast = test system: MDA-MB-231 breast
A549 NSCLC = test system: A549 NSCLC
NCI-H522 lung = test system: NCI-H522 lung
KM12 colon = test system: KM12 colon
OVCAR-3 ovarian = test system: OVCAR-3 ovarian
OVCAR-8 ovarian = test system: OVCAR-8 ovarian
OVCAR-5 ovarian = test system: OVCAR-5 ovarian
SK-MEL-5 melanoma = test system: SK-MEL-5 melanoma
NCI-H460 lung = test system: NCI-H460 lung
SF-295 CNS = test system: SF-295 CNS
MALME-3M melanoma = test system: MALME-3M melanoma
MDA-MB-435 = test system: MDA-MB-435
SR leukemia = test system: SR leukemia
SK-MEL-28 melanoma = test system: SK-MEL-28 melanoma
HOP-92 NSCLC = test system: HOP-92 NSCLC
HS 578T breast = test system: HS 578T breast
DU-145 prostate = test system: DU-145 prostate
LOX IMVI melanoma = test system: LOX IMVI melanoma
OVCAR-4 ovarian = test system: OVCAR-4 ovarian
M14 melanoma = test system: M14 melanoma
CCRF-CEM leukemia = test system: CCRF-CEM leukemia
TK-10 renal = test system: TK-10 renal
EKVX NSCLC = test system: EKVX NSCLC
HCT-15 colon = test system: HCT-15 colon
BT-549 breast = test system: BT-549 breast
RXF 393 renal = test system: RXF 393 renal
IGROV1 ovarian = test system: IGROV1 ovarian
PC-3 prostate = test system: PC-3 prostate
RPMI-8226 leukemia = test system: RPMI-8226 leukemia
CAKI-1 renal = test system: CAKI-1 renal
NCI-H226 lung = test system: NCI-H226 lung
HOP-62 NSCLC = test system: HOP-62 NSCLC
SNB-75 CNS = test system: SNB-75 CNS
HCC-2998 colon = test system: HCC-2998 colon
HT29 colon = test system: HT29 colon
NCI/ADR-RES ovarian = test system: NCI/ADR-RES ovarian
K-562 leukemia = test system: K-562 leukemia
A498 renal = test system: A498 renal
MOLT-4 leukemia = test system: MOLT-4 leukemia
UACC-62 melanoma = test system: UACC-62 melanoma
T-47D breast = test system: T-47D breast
SNB-19 CNS = test system: SNB-19 CNS
SK-MEL-2 melanoma = test system: SK-MEL-2 melanoma

CN(C)CCCOc1c2ccccc2nc2c1oc1ccc(Cl)cc12
GI50 (SF-268 CNS): 3.8 µM
TGI (SF-268 CNS): 17 µM
GI50 (SK-OV-3 ovarian): 4.6 µM
TGI (SK-OV-3 ovarian): 16.7 µM
GI50 (ACHN renal): 2.2 µM
TGI (ACHN renal): 11.5 µM
GI50 (UO-31 renal): 2.32 µM
TGI (UO-31 renal): 12.1 µM
GI50 (UACC-257 melanoma): 3.44 µM
TGI (UACC-257 melanoma): 13.3 µM
GI50 (HCT-116 colon): 1.87 µM
TGI (HCT-116 colon): 13 µM
GI50 (MCF7 breast): 2.88 µM
TGI (MCF7 breast): 10.3 µM
GI50 (COLO 205 colon): 2.49 µM
TGI (COLO 205 colon): 9.76 µM
GI50 (U251 CNS): 3.36 µM
TGI (U251 CNS): 13.7 µM
GI50 (786-0 renal): 3.32 µM
TGI (786-0 renal): 15.3 µM
GI50 (HL-60(TB) leukemia): 3.13 µM
TGI (HL-60(TB) leukemia): 14.1 µM
GI50 (SN12C renal): 3.01 µM
TGI (SN12C renal): 14.1 µM
GI50 (SF-539 CNS): 3.24 µM
TGI (SF-539 CNS): 13 µM
GI50 (SW-620 colon): 1.92 µM
TGI (SW-620 colon): 10.1 µM
GI50 (MDA-MB-231 breast): 2.64 µM
TGI (MDA-MB-231 breast): 10.5 µM
GI50 (A549 NSCLC): 2.8 µM
TGI (A549 NSCLC): 10.6 µM
GI50 (NCI-H522 lung): 2.76 µM
TGI (NCI-H522 lung): 11.1 µM
GI50 (KM12 colon): 4.18 µM
TGI (KM12 colon): 18.5 µM
GI50 (OVCAR-3 ovarian): 5.2 µM
TGI (OVCAR-3 ovarian): 17.5 µM
GI50 (OVCAR-8 ovarian): 3.28 µM
TGI (OVCAR-8 ovarian): 14.2 µM
GI50 (OVCAR-5 ovarian): 4.04 µM
TGI (OVCAR-5 ovarian): 15.9 µM
GI50 (SK-MEL-5 melanoma): 9.28 µM
TGI (SK-MEL-5 melanoma): 21.3 µM
GI50 (NCI-H460 lung): 3.06 µM
TGI (NCI-H460 lung): 11.6 µM
GI50 (SF-295 CNS): 3.82 µM
TGI (SF-295 CNS): 15 µM
GI50 (MALME-3M melanoma): 2.77 µM
TGI (MALME-3M melanoma): 9.64 µM
GI50 (MDA-MB-435): 3.44 µM
TGI (MDA-MB-435): 12.7 µM
GI50 (SR leukemia): 3.02 µM
TGI (SR leukemia): 12.2 µM
GI50 (SK-MEL-28 melanoma): 4.56 µM
TGI (SK-MEL-28 melanoma): 16.5 µM
GI50 (HOP-92 NSCLC): 1.75 µM
TGI (HOP-92 NSCLC): 8.01 µM
GI50 (HS 578T breast): 3.76 µM
TGI (HS 578T breast): 19.7 µM
GI50 (DU-145 prostate): 4.14 µM
TGI (DU-145 prostate): 14.5 µM
GI50 (LOX IMVI melanoma): 1.48 µM
TGI (LOX IMVI melanoma): 3.08 µM
GI50 (OVCAR-4 ovarian): 2.42 µM
TGI (OVCAR-4 ovarian): 7.45 µM
GI50 (M14 melanoma): 3.04 µM
TGI (M14 melanoma): 11 µM
GI50 (CCRF-CEM leukemia): 4.12 µM
TGI (CCRF-CEM leukemia): 46.1 µM
GI50 (TK-10 renal): 5.16 µM
TGI (TK-10 renal): 17.1 µM
GI50 (EKVX NSCLC): 3.68 µM
TGI (EKVX NSCLC): 14.7 µM
GI50 (HCT-15 colon): 3.07 µM
TGI (HCT-15 colon): 12.5 µM
GI50 (BT-549 breast): 5.17 µM
TGI (BT-549 breast): 18.5 µM
GI50 (RXF 393 renal): 2.58 µM
TGI (RXF 393 renal): 8.7 µM
GI50 (IGROV1 ovarian): 3.61 µM
TGI (IGROV1 ovarian): 13 µM
GI50 (PC-3 prostate): 3.16 µM
TGI (PC-3 prostate): 12.3 µM
GI50 (RPMI-8226 leukemia): 2.7 µM
TGI (RPMI-8226 leukemia): 7.56 µM
GI50 (CAKI-1 renal): 2.63 µM
TGI (CAKI-1 renal): 11.3 µM
GI50 (NCI-H226 lung): 3.02 µM
TGI (NCI-H226 lung): 9.95 µM
GI50 (HOP-62 NSCLC): 3.66 µM
TGI (HOP-62 NSCLC): 15.5 µM
GI50 (SNB-75 CNS): 2.6 µM
TGI (SNB-75 CNS): 11.8 µM
GI50 (HCC-2998 colon): 3.12 µM
TGI (HCC-2998 colon): 13.9 µM
GI50 (HT29 colon): 2.56 µM
TGI (HT29 colon): 11.7 µM
GI50 (NCI/ADR-RES ovarian): 1.94 µM
TGI (NCI/ADR-RES ovarian): 10.2 µM
GI50 (K-562 leukemia): 2.79 µM
TGI (K-562 leukemia): > 100 µM
GI50 (A498 renal): 10.4 µM
TGI (A498 renal): 23.6 µM
GI50 (MOLT-4 leukemia): 3.19 µM
TGI (MOLT-4 leukemia): 14 µM
GI50 (UACC-62 melanoma): 5.11 µM
TGI (UACC-62 melanoma): 19.1 µM
GI50 (T-47D breast): 4.92 µM
TGI (T-47D breast): 20.7 µM
GI50 (SNB-19 CNS): 3.93 µM
TGI (SNB-19 CNS): 16.3 µM
GI50 (SK-MEL-2 melanoma): 6.35 µM
TGI (SK-MEL-2 melanoma): 18.9 µM
